# Legend:
# [1] = molecular target: T1, D(2) dopamine receptor (Homo sapiens, UniProt P14416); assay: Displacement of [3H]N-methylspiperone from human D2 receptor expressed in HEKT cell membranes at 10 uM after 90 mins by microbeta scintillation counting method relative to control; conditions: HEKT cell membranes expressing human D2 receptor, probe [3H]N-methylspiperone
# [2] = molecular target: T2, D(1A) dopamine receptor (Homo sapiens, UniProt P21728); assay: Displacement of [3H]SCH23390 from human D1 receptor expressed in HEKT cell membranes after 90 mins by microbeta scintillation counting method
# T2 sequence (P21728 whole entry): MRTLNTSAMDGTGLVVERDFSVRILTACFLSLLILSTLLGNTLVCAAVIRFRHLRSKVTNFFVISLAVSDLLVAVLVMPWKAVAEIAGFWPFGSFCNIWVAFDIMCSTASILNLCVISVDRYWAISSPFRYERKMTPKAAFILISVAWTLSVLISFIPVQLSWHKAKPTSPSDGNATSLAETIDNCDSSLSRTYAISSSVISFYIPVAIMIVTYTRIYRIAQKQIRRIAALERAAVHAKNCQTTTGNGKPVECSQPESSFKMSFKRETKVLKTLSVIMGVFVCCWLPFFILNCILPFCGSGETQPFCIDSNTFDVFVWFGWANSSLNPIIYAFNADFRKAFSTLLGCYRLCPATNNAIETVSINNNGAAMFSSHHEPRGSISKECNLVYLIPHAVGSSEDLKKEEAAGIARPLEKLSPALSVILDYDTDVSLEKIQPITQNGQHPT
# [3] = molecular target: T1, D(2) dopamine receptor; assay: Displacement of [3H]N-methylspiperone from human D2 receptor expressed in HEKT cell membranes after 90 mins by microbeta scintillation counting method
# [4] = molecular target: T2, D(1A) dopamine receptor; assay: Displacement of [3H]SCH23390 from human D1 receptor expressed in HEKT cell membranes at 10 uM after 90 mins by microbeta scintillation counting method relative to control
# [5] = molecular target: T3, D(3) dopamine receptor (Homo sapiens, UniProt P35462); assay: Displacement of [3H]N-methylspiperone from human D3 receptor expressed in HEKT cell membranes at 10 uM after 90 mins by microbeta scintillation counting method relative to control
# T3 sequence (P35462 whole entry): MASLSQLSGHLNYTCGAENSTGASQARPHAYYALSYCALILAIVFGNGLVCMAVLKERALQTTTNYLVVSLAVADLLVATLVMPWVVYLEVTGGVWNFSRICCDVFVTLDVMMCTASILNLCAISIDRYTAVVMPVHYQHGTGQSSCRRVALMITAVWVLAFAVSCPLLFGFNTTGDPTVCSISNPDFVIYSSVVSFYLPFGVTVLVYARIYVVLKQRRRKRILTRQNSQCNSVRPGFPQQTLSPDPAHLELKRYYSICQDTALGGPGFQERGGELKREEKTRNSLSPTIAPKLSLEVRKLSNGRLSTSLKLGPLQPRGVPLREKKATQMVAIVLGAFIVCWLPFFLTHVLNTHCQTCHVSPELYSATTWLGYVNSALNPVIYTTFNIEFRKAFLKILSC
# [6] = molecular target: T3, D(3) dopamine receptor; assay: Displacement of [3H]N-methylspiperone from human D3 receptor expressed in HEKT cell membranes after 90 mins by microbeta scintillation counting method
# [7] = Selectivity index, ratio of Ki for human D2 receptor expressed in HEKT cell membranes to Ki for human D1 receptor expressed in HEKT cell membranes
# [8] = Antagonist activity at rhesus monkey D1 receptor expressed in HEK293 cells assessed as inhibition of dopamine-induced [35S]GTPgammaS binding; type: cell-based, Macaca mulatta
# [9] = molecular target: T3, D(3) dopamine receptor; assay: Antagonist activity at human D3 receptor expressed in CHO cells assessed as inhibition of dopamine-induced [35S]GTPgammaS binding; type: functional, cell-based
# T1 sequence (P14416 whole entry): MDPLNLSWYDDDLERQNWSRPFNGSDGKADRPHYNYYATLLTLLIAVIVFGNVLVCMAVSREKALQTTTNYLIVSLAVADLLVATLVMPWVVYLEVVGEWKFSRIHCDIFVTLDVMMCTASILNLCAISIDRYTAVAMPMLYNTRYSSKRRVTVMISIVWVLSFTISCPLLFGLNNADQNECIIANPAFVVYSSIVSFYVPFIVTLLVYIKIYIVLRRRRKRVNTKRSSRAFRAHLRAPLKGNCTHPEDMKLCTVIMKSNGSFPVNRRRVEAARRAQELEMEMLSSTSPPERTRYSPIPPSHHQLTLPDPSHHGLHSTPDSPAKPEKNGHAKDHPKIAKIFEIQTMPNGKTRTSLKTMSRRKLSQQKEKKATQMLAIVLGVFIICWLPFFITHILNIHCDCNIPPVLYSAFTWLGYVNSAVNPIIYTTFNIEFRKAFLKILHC
SMILES,"inhibition at 1.5 h, 10 µM [1]",Ki [2],Ki [3],inhibition [4],inhibition [5],Ki [6],IC50 [8],Ke [9],Ratio Ki [7]
CCC(C)Oc1c(O)ccc2c1CN1CCc3cc(OC)c(O)cc3[C@@H]1C2 (some centres undefined),> 50%,65 nM,104 nM,–,–,–,–,–,–
CCCCCOc1c(O)cc(Br)c2c1CN1CCc3cc(OC)c(O)cc3[C@@H]1C2,> 50%,32 nM,398 nM,> 50%,> 50%,–,–,–,–
CCCCCCOc1c(O)cc(Br)c2c1CN1CCc3cc(OC)c(O)cc3[C@@H]1C2,> 50%,68 nM,731 nM,> 50%,> 50%,3170 nM,–,–,>10
CCCOc1c(O)ccc2c1CN1CCc3cc(OC)c(O)cc3[C@@H]1C2,> 50%,12 nM,41 nM,> 50%,> 50%,175 nM,–,–,–
CCCCOc1c(O)ccc2c1CN1CCc3cc(OC)c(O)cc3[C@@H]1C2,< 50%,–,–,–,> 50%,–,–,–,–
COc1cc2c(cc1O)[C@@H]1Cc3ccc(O)c(OC)c3CN1CC2 [STEPHOLIDINE],> 50%,–,–,> 50%,> 50%,–,–,–,–
CCCCCCOc1c(O)ccc2c1CN1CCc3cc(OC)c(O)cc3[C@@H]1C2,< 50%,77 nM,–,> 50%,> 50%,195 nM,–,–,–
CCCCCOc1c(O)ccc2c1CN1CCc3cc(OC)c(O)cc3[C@@H]1C2,> 50%,–,23 nM,–,> 50%,3210 nM,–,–,–

# Continued, in another order:
"inhibition at 1.5 h, 10 µM [1]",Ki [2],Ki [3],inhibition [4],inhibition [5],Ki [6],IC50 [8],Ke [9],SMILES,Ratio Ki [7]
> 50%,7.7 nM,18 nM,> 50%,> 50%,–,–,–,COCCOc1c(O)ccc2c1CN1CCc3cc(OC)c(O)cc3[C@@H]1C2,–
> 50%,2.3 nM,107 nM,> 50%,> 50%,–,–,–,CCCCOc1c(O)cc(Br)c2c1CN1CCc3cc(OC)c(O)cc3[C@@H]1C2,–
< 50%,4.2 nM,–,> 50%,> 50%,726 nM,–,–,COCCOc1c(O)cc(Br)c2c1CN1CCc3cc(OC)c(O)cc3[C@@H]1C2,–
> 50%,2.2 nM,70 nM,> 50%,> 50%,–,–,–,CCCOc1c(O)cc(Br)c2c1CN1CCc3cc(OC)c(O)cc3[C@@H]1C2,–
< 50%,1.3 nM,–,> 50%,> 50%,373 nM,–,–,CCOc1c(O)cc(Br)c2c1CN1CCc3cc(OC)c(O)cc3[C@@H]1C2,>10
< 50%,5.3 nM,–,> 50%,> 50%,106 nM,416 nM,3.15 nM,CCOc1c(O)ccc2c1CN1CCc3cc(OC)c(O)cc3[C@@H]1C2,–
> 50%,9.7 nM,331 nM,> 50%,> 50%,2070 nM,–,–,CCC(C)Oc1c(O)cc(Br)c2c1CN1CCc3cc(OC)c(O)cc3[C@@H]1C2 (some centres undefined),–
